Test results taken from patent US20210308138A1, “TISSUE TRANSGLUTAMINASE MODULATORS FOR MEDICINAL USE” (Aarhus Universitet, priority 2018, published 2021).
Entries after “also recorded” stand apart in the source; their conditions may differ.

Columns and labels:
[1] = Pharmacokinetic study, single intravenous dose, non-compartmental model; format: in vivo; conditions: mouse, blood, single 2 mg/kg intravenous dose, mice
[2] = test system: small subcutaneous arteries obtained from human biopsies; test: Direct relaxation of human small subcutaneous arteries; conditions: LDN-27219 10^−8-10^−5 mol/L; hypertensive patients
Method: (§1) Human subcutaneous arteries were obtained from fat biopsies of the gluteal region from both male and female patients (30-70 years of age) with essential hypertension.
(§2) For ‘ex vivo’ studies, animals were randomly selected and euthanized by cervical dislocation and exanguination. The mesenteric arteries were immediately extracted and placed in 4° C. physiological saline solution (PSS, pH=7.4) of the following composition (mmol/L): 119 NaCl, 4.7 KCl, 1.18 KH2PO4, 1.17 MgSO4, 1.5 CaCl2), 24.9 NaHCO3, 0.026 EDTA and 5.5 glucose and small mesenteric arteries (internal diameters of 200-300 μm) were isolated. Human subcutaneous arteries (internal diameters of 300-400 μm) were dissected from the biopsies in the same conditions mentioned above for the mesenteric bed from rodents.
(§3) Small human subcutaneous arteries were obtained from fat biopsies from the gluteal region of hypertensive patients and prepared as described in Example 1. Concentration-response curves for LDN-27219 were constructed as described in Example 4 (FIG. 5B) and relaxation measurements were performed as described in Example 1.

[3] = test system: small subcutaneous arteries obtained from human biopsies; test: Acetylcholine-induced relaxation of human small subcutaneous arteries; conditions: LDN-27219 3·10^−6 mol/L; acetylcholine 10^−8-10^−5 mol/L
Method: as §1, §2, §3

[4] = test system: healthy male BKS(D)-Leprdb/JOrlRj heterozygous mice; test: Erectile function in vivo, peak intracavernosal pressure (PICP) over MAP; conditions: preliminary in vivo studies
[5] = test system: Male Wistar rats; test: Mean arterial pressure (MAP) in vivo measurement after intrajugular infusion
Method: For ‘in vivo’ experiments Wistar rats of different age were fasted 8 h before anesthesia with 35 mg/kg of S-ketamine and 50 mg/kg of pentobarbital sodium administered intraperitoneally.
Male Wistar rats with 12-14 and 30-35 weeks of age were anesthetized with s-ketamine (35 mg/kg) and pentobarbital (50 mg/kg) and placed on a heated blanket to maintain body temperature at 37° C. ECG needles were installed for electrocardiographic measurements and a solid state catheter (Millar Inc, Houston, USA) was introduced into the carotid artery to measure MAP. MAP and electrocardiographic data was continuously recorded on a computerized data acquisition system (PowerLab, ADInstruments). Adequate depth of anesthesia was checked periodically by the absence of the toe pinch withdrawal effect and ⅓ of the initial dose of anesthetics was administered intraperitoneally when needed (usually each 1½ h). Changes in MAP and electrocardiographic signal in response to intrajugular infusion during 3 minutes of different doses of LDN-27219 and the corresponding vehicle (PEG-400) were studied.
The Area Under the Curve (AUC) was calculated using Graphpad Prism 5.1 (GraphPad Software, San Diego, Calif., USA) for each response to the change in MAP that was collected during the experiments in example 3. The AUC gives information about the maximal response, and about the duration of the effect.
Rats of different age in these experiments were anesthetized, prepared and catheterized as described in Example 3.

[6] = test system: small mesenteric arteries; test: Acetylcholine-induced endothelium-dependent relaxation of phenylephrine pre-contracted small mesenteric arteries, isometric myograph (ex vivo); parameters: species or system Male Wistar rats
Method: Small mesenteric arteries were mounted in microvascular myographs (Danish Myotechnology, Aarhus, Denmark) using two 40 μm wires and stretched to their optimal diameter for isometric tension recordings, which corresponded to 0.9 times the estimated internal diameter at 100 mmHg of transmural pressure. PSS solution in the myograph bath was heated to 37° C. and continuously bubbled with 5% CO2 in air to maintain pH (7.4). The vessel viability was tested at the beginning of each experiment by measuring the vasoconstrictor responses to a solution with a high K^+ concentration (KPSS), equivalent to PSS except that NaCl was exchanged for KCl on an equimolar basis, giving a final concentration of 123.7 mmol/L K^+ and the presence of endothelium was confirmed by addition of acetylcholine (ACh) (10^−5) after pre-constriction with noradrenaline (5·10^−6 mol/L), arteries with less than 75% of relaxation were discarded.
Mesenteric arteries from rats of different age were incubated with (10^−6 mol/L) LDN-27219 or vehicle for 25 minutes and pre-contracted with phenylephrine (Phe) (10^−5 mol/L). Then cumulative addition of acetylcholine (ACh) caused the relaxation of the mesenteric arteries and the concentration-response curves were constructed.
Rats of 5-7 weeks age, about 12 weeks age, and more than 30 weeks of age were tested respectively. The results of the isometric tension studies are shown in FIGS. 1, A), B) and C) respectively, each representing a different their age group.
The small mesenteric arteries were prepared in the same way is described in example 1.

[7] = test system: small mesenteric arteries; test: Acetylcholine-induced relaxation of small mesenteric arteries from healthy and diabetic BKS mice (ex vivo); parameters: species or system male BKS(D)-Leprdb/JOrlRj mice
Method: In these experiments, healthy control mice of different ages and diabetic adult mice were used and the relaxation measurements were performed as described in Example 1.
Healthy male BKS(D)-Leprdb/JOrlRj heterozygous mice between 14-16 and 24-25 weeks of age, and diabetic homozygous mice between 16-17 weeks of age were tested respectively. The results of the isometric tension studies are shown in FIGS. 2, A), B) and C) respectively.

clearance [1]: 52.3 mL/min/kg
half-life [1]: 4.89 h
Vd ([1]; read-out: Volume of distribution): 21.4 L/kg
SMILES: NNC(=O)CSc1nc2scc(-c3ccccc3)c2c(=O)n1-c1ccccc1 [LDN-27219]
direct relaxation of human small subcutaneous arteries [2]: direct and dose-dependent relaxation
endothelium-derived relaxation induced by acetylcholine, compared to vehicle [3]: improves the endothelium-derived relaxation
erectile function, peak intracavernosal pressure (PICP) over MAP [4]: increased erectile function
mean blood pressure (MAP) ([5]; LDN-27219 0.1, 1.0 and 2.0 mg/kg, intrajugular infusion during 3 minutes, carotid artery): lowers the mean blood pressure
age dependence of antihypertensive effect (AUC of MAP) ([5]; rats >30 weeks vs 12-14 weeks old): greater effect of LDN-27219 in older animals
LDN-27219 potentiation of ACh-induced vasodilation in presence of irreversible TG2 inhibitor ([6]; LDN-27219 10^−6 mol/L with VA-5 10^−5 mol/L, ≈12 week rats): reduced or completely inhibited
endothelium-dependent relaxation induced by acetylcholine, compared to vehicle ([6]; LDN-27219 10^−6 mol/L, 25 min incubation, Phe 10^−5 mol/L pre-contraction, rats of different age): more potent endothelium-dependent relaxation; also recorded: increased the response to ACh
age dependence of the effect on acetylcholine-induced relaxation ([6]; LDN-27219 10^−6 mol/L, rats 6-7, ≈12 and >30 weeks old): more pronounced in old rats, than in young rats
endothelium-dependent relaxation induced by acetylcholine, compared to vehicle ([7]; LDN-27219 3·10^−6 mol/L, healthy and diabetic mice): more potent endothelium-dependent relaxation
dependence of the effect on age and diabetes ([7]; healthy mice 14-16 and 24-25 weeks, diabetic mice 16-17 weeks): more pronounced in older mice, and particularly pronounced in diabetic mice
